Measurements reported in patent US5834521A, “Substituted dibenz (A F)azulenes and methods of preparation” (Ortho Pharmaceutical Corporation, priority 1996, dated 1998).
pIC50: −log10 of the molar value.

What was measured:
[1] = target: T1, Progestin Receptor (Oryctolagus cuniculus, UniProt P06186); assay: Progestin Receptor Binding (competitive binding, 3H-promegestone, rabbit uterus receptor preparation); design: species or system New Zealand rabbits; details: 3H-promegestone displacement, 4° C., 18 h
T1 construct: The high speed supernatant fraction was used as the receptor preparation; from tissue; host or cells: uterus of New Zealand rabbits, 200,000×g supernatant (cytosol)
T1 sequence (P06186 1-930): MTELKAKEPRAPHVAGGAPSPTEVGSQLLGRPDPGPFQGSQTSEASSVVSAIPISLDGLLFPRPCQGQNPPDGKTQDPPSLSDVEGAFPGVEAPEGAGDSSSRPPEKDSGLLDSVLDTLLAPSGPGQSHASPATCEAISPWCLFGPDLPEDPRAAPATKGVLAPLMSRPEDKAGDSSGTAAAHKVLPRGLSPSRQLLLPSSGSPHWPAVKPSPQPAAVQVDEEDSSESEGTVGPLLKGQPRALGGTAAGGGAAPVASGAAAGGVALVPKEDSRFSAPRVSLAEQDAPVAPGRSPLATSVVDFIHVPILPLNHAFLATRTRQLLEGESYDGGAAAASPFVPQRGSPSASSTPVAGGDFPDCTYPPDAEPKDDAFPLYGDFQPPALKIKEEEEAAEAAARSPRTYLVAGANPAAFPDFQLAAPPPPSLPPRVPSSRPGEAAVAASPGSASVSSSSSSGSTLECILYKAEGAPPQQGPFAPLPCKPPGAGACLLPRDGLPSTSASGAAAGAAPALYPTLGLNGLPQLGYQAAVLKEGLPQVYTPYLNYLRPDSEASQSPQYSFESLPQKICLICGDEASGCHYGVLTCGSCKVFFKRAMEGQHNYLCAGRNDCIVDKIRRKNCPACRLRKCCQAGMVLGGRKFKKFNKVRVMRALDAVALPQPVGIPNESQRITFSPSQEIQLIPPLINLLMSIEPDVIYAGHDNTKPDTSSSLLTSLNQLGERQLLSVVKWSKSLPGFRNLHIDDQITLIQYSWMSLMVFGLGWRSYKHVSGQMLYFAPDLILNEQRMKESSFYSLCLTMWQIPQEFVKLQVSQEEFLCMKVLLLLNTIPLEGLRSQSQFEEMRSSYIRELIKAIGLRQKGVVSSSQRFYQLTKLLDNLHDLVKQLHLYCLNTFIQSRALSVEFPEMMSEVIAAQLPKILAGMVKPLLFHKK
Method: Progestin Receptor Binding
The procedure used was essentially that of J. L. McGuire, C.
Uteri from New Zealand rabbits (1.5 to 2.5 kg) were placed in a cold buffer A (0.01 mol Tris-HCl, pH 8.0, 0.001 mol EDTA, 0.25 mol sucrose). The uteri were minced, washed and homogenized in cold buffer A. The homogenate (2 g wet tissue/mL buffer) was centrifuged at 200,000×g for 1 h at 4° C. The high speed supernatant fraction was used as the receptor preparation.
A competitive binding assay was performed by mixing 3H-promegestone with the receptor preparation and adding a known amount of unlabeled compound. This mixture was incubated at 4° C. for 18 h. The compounds bound to the receptor were separated from those which were free in solution using dextran coated charcoal and the amount of isotope bound to the receptor was determined by scintillation counting. The extent of the compound's interaction with the receptor is measured as the percent reduction in the total isotope bound caused by the unlabeled test compound as compared to the control levels. The receptor screen consists of measuring the reduction in the total isotope bound caused by the unlabeled test compound at […] final concentrations.

[2] = test system: endometrial proliferation; assay: Assay to Determine Effect of Compound on Uterine Proliferation (Clauberg Test); format: in vivo, immature female white rabbits; details: 40 mg/kg subcutaneously; scale 0 (no response)-4 (maximum response); estradiol-primed immature rabbits, daily for five days
Method: Assay to Determine Effect of Compound on Uterine Proliferation
The procedure used was essentially that of M. K. McPhail, J. Physiology, 83, 145 (1934). Groups of immature female white rabbits (750-950 g) were primed with a daily subcutaneous injection, for 6 days, with 5 micrograms of 17β-estradiol in 0.2 ml of sesame oil. Starting on the 7th day, they received the test compound daily for five days in the appropriate vehicle. The rabbits were sacrificed approximately 24 hours after the last administration, and the uteri were excised, cleaned and weighed. Portions of both uterine horns were fixed in 10% neutral formalin, sectioned at […] and stained with hematoxylin and eosin. Progestational activity was assessed as in the McGinty Test. The evaluation for endometrial proliferation was made according to a McPhail Index. Each slide was graded for each rabbit on a 0 (no response)-4 (maximum response) scale.

[3] = test system: T47D human breast carcinoma cells; assay: Assay to Demonstrate Ability to Increase Breast Cell Proliferation ([3H]-thymidine incorporation); format: cell-based; details: at the concentration of the same table line, control level set at 100%
Method: This assay is used to measure the sex steroid effects of compounds. The activity of compounds in this assay is an indication of their potential use as replacements for naturally occuring hormones in individuals with sex hormone deficiencies.
T47D human breast carcinoma cells are grown in 96-well plates in phenol-red free nutrient media at 37° C. for 48 hours. Conditioned media is removed and replaced with fresh media containing test compounds dissolved in DMSO (0.1% final concentration) and the cells are incubated for an additional 18-20 hours at 37° C. [^3 H]-thymidine is added to each well and allowed to incorporate into DNA for 4 hours. Unlabeled thymidine is then added to terminate the reaction, and the cultures are then washed, trypsinized and harvested. The amount of [^3 H]-thymidineincorporated into DNA is determined by liquid scintillation. Data for each well are expressed as a percent above control level, which is set at 100%. The concentration at which maximal deviation from control is found and the magnitude of that percent deviation is reported. Table T lists the data for some of the compounds of this invention.

For `CCC[C@]12Cc3ccccc3C1=C[C@@H](C)c1ccc(OC)cc1C2` (relative stereo) [Compound 38], the pIC50 [1] was 7.60, the “McPhail Index” value [2] was 4 and the “% control (magnitude of maximal deviation from control)” value [3] was 189%.

With `CC1CC2c3ccc(F)cc3CC2(C)Cc2cc(Oc3nnnn3-c3ccccc3)ccc21` (centres unmarked) [Compound 63, 6,11a-Dimethyl-2-fluoro-9-(1-phenyl-5-tetrazolyl)-oxy-4b,5,6,11,11a,12-hexahydrodibenz[a,f]azulene] the pIC50 [1] was 7.26 and the “% control (magnitude of maximal deviation from control)” value [3] was 94%.

With `COc1ccc2c(c1)CC1(C)Cc3cccc(OC(C)=O)c3CC=C21` (centres unmarked) [Compound 117] the pIC50 [1] was 7.03 and the “% control (magnitude of maximal deviation from control)” value [3] was 160%.

`COc1cc2c(cc1[N+](=O)[O-])C(C)C(O[N+](=O)[O-])C1c3ccccc3CC1(C)C2` (centres unmarked) [Compound 81, 5-(6,11a,-Dimethyl-9-methoxy-8-nitro-4b,5,6,11,11a,12-hexahydro)dibenz[a,f]azulenyl nitrate ester] was tested, and the pIC50 [1] was 7.09 and the “% control (magnitude of maximal deviation from control)” value [3] was 56%.

`CCC12Cc3cc(OC)ccc3CC=C1c1ccccc1C2` (centres unmarked) [Compound 43] was tested, and the pIC50 [1] was 7.24 and the “% control (magnitude of maximal deviation from control)” value [3] was 151%.
